Results taken from patent US12497370B2, “Isoxazoline derivatives” (Elanco Tiergesundheit AG, priority 2019, dated 2025).
Read-outs that look alike come from different tables or passages of the source.

How the values were obtained:
[1] = test system: fleas (Ctenocephalides felis); assay: In vitro evaluation of ingestion activity against fleas; settings: flea ingestion test, compound in organic bovine blood (0.5% DMSO), adult fleas, percent mortality between 2 h and 48 h post infestation, read-out: EC50 (the source's name)
Experimental: In Vitro Evaluation of Ingestion Activity Against Fleas (Ctenocephalides felis)
For flea ingestion tests, serial dilutions of the compound stock were performed using DMSO to achieve the desired range for EC50 and EC90 determination. An aliquot of each compound dilution was added to organic bovine blood with a final DMSO concentration of 0.5% and placed in an artificial feeding container. Fipronil is included to serve as a positive control. Ten newly emerged unfed adult fleas, 0-7 days old Ctenocephalides felis, from a laboratory colony, were aspirated into each vial or cage. The cages for flea ingestion assays were held in a temperature-controlled artificial feeding apparatus to allow continual access to organic bovine blood containing the desired concentration of compound. Fresh aliquots of compound-spiked bovine blood were provided daily for the duration of the study. Fleas were evaluated for percent mortality at various time points between 2 h and 48 h post infestation. Fleas showing normal movement and/or jumping ability were considered viable and those showing no movement after tapping the vials were scored as dead.

[2] = PK determination following administration to beagle dogs; format: in vivo; settings: dog
Experimental: PK Determination Following Administration to Beagle Dogs
Behavior of single oral or intravenous dose of the desired compound was assessed in beagle dogs. The animals (n=6) received the compound by oral gavage (3 or 10 mg/kg) or intravenous dose (1 or 2 mg/kg). Blood samples were collected predose and at 0.25, 0.5, 1, 2, 4, 8, 24, 48, 72, 96, 168, 336, 504, 672, 1008, 1344, 1680, 2016, 2352, 2688, 2856 and 3024 h postdose. A portion of each whole blood sample was processed to plasma. Test article concentrations in plasma and whole blood were determined using LC-MS/MS.

[3] = in vivo, beagle dogs, single oral gavage (3 or 10 mg/kg) or intravenous dose (1 or 2 mg/kg), LC-MS/MS, read-out: Half-life (converted)
[4] = in vivo, beagle dogs, single oral gavage (3 or 10 mg/kg) or intravenous dose (1 or 2 mg/kg), LC-MS/MS, read-out: Plasma clearance (converted)

| Structure (SMILES) | LC50 [1] [µg/mL] | other results |
| --- | --- | --- |
| O=C(CNC(=O)c1ccc(C2=NOC(c3cc(C(F)(F)F)cc(Cl)c3F)(C(F)(F)F)C2)c2ccccc12)NCC(F)(F)F (stereo not drawn) [2.1 or 2.2] | < 1 | clearance ([2]; beagle, in vivo): 2.31 mL/h/kg; half-life ([2]; beagle, in vivo): 45 days |
| O=C(CNC(=O)c1ccc(C2=NOC(c3cc(Cl)cc(C(F)(F)F)c3)(C(F)(F)F)C2)c2ccccc12)NCC(F)(F)F (stereo not drawn) [afoxolaner, reference compound] |  | half-life [2, 3]: 15.5 days; clearance [2, 4]: 4.96 mL/h/kg |
| Cc1cc(C2=NOC(c3cc(Cl)cc(Cl)c3)(C(F)(F)F)C2)ccc1C(=O)NCC(=O)NCC(F)(F)F (stereo not drawn) [fluralaner, reference compound] |  | half-life [2, 3]: 12 to 15 days |
| CS(=O)(=O)CC(=O)N1CC2(C1)OCc1cc(C3=NO[C@@](c4cc(Cl)c(F)c(Cl)c4)(C(F)(F)F)C3)ccc12 [sarolaner, reference compound] |  | half-life [2, 3]: 12 days; clearance [2, 4]: 7.21 mL/h/kg |
| Cc1cc(C2=NO[C@@](c3cc(Cl)c(Cl)c(Cl)c3)(C(F)(F)F)C2)sc1C(=O)NCC(=O)NCC(F)(F)F [lotilaner, reference compound] |  | half-life [2, 3]: 25 days; clearance ([2]; plasma, beagle dogs, single oral gavage (3 or 10 mg/kg) or intravenous dose (1 or 2 mg/kg), LC-MS/MS, read-out: Plasma clearance (converted)): 7.5 mL/h/kg |
| Cc1cc(C2=NOC(c3cc(C(F)(F)F)cc(Cl)c3F)(C(F)(F)F)C2)ccc1C(=O)NC1(C)CSC1 (single isomer, unassigned) [Example 3.93, 2-methyl-N-(3-methylthietan-3-yl)-4-[(5R or S)-5-[3-chloro-2-fluoro-5-(trifluoromethyl)phenyl]-5-(trifluoromethyl)-4H-isoxazol-3-yl]benzamide] | < 1 |  |
| Cc1cc(C2=NOC(c3cc(C(F)(F)F)cc(Cl)c3F)(C(F)(F)F)C2)ccc1C(=O)NC1C[S+]([O-])C1 (single isomer, unassigned) [Example 3.55] | < 1 |  |
| Cc1cc(C2=NOC(c3cc(C(F)(F)F)cc(Cl)c3F)(C(F)(F)F)C2)ccc1C(=O)N[C@H]1CNC(=O)C1 (single isomer, unassigned) [Example 3.85, 4-[(5R or S)-5-[3-chloro-2-fluoro-5-(trifluoromethyl)phenyl]-5-(trifluoromethyl)-4H-isoxazol-3-yl]-2-methyl-N-[(3R)-5-oxopyrrolidin-3-yl]benzamide] | < 1 |  |
| Cc1cc(C2=NOC(c3cc(C(F)(F)F)cc(Cl)c3F)(C(F)(F)F)C2)ccc1C(=O)N[C@@H]1CCN(CC#N)C1 (single isomer, unassigned) [Example 3.76, 4-[(5S or R)-5-[3-chloro-2-fluoro-5-(trifluoromethyl)phenyl]-5-(trifluoromethyl)-4H-isoxazol-3-yl]-N-[(3R)-1-(cyanomethyl)pyrrolidin-3-yl]-2-methyl-benzamide] | < 1 |  |
| Cc1cc(C2=NOC(c3cc(C(F)(F)F)cc(Cl)c3F)(C(F)(F)F)C2)ccc1C(=O)NC1CN(S(=O)(=O)C(F)(F)F)C1 (single isomer, unassigned) [Example 3.61, 2-methyl-4-[(5R or S)-5-[3-chloro-2-fluoro-5-(trifluoromethyl)phenyl]-5-(trifluoromethyl)-4H-isoxazol-3-yl]-N-[1-(trifluoromethylsulfonyl)azetidin-3-yl]benzamide] | < 3 |  |
| Cc1cc(C2=NOC(c3cc(C(F)(F)F)cc(Cl)c3F)(C(F)(F)F)C2)ccc1C(=O)N[C@@H]1CNC1=O (single isomer, unassigned) [Example 3.53, 4-[(5R or S)-5-[3-chloro-2-fluoro-5-(trifluoromethyl)phenyl]-5-(trifluoromethyl)-4H-isoxazol-3-yl]-2-methyl-N-[(3R)-2-oxoazetidin-3-yl]benzamide] | < 1 |  |
| Cc1cc(C2=NOC(c3cc(C(F)(F)F)cc(Cl)c3F)(C(F)(F)F)C2)ccc1C(=O)NN1CCN(CC(F)(F)F)C1=O (racemic) [Example 3.26, 2-methyl-N-[2-oxo-3-(2,2,2-trifluoroethyl)imidazolidin-1-yl]-4-[(5RS)-5-[3-chloro-2-fluoro-5-(trifluoromethyl)phenyl]-5-(trifluoromethyl)-4H-isoxazol-3-yl]benzamide] | < 3 |  |
| Cc1cc(C2=NOC(c3cc(C(F)(F)F)cc(Cl)c3F)(C(F)(F)F)C2)ccc1C(=O)NC1CN(C(N)=O)C1 (single isomer, unassigned) [Example 3.71, 3-[[2-methyl-4-[(5S or R)-5-[3-chloro-2-fluoro-5-(trifluoromethyl)phenyl]-5-(trifluoromethyl)-4H-isoxazol-3-yl]benzoyl]amino]azetidine-1-carboxamide] | < 1 |  |
| CS(=O)(=O)CC(=O)N1CC2(C1)OCc1cc(C3=NO[C@](c4cc(C(F)(F)F)cc(C(F)F)c4F)(C(F)(F)F)C3)ccc12 [1.1 or 1.2] | < 3 | clearance ([2]; beagle, in vivo): 2.36 mL/h/kg; half-life ([2]; beagle, in vivo): 36 days |
| CO[C@H]1C[C@@H](NC(=O)c2ccc(C3=NOC(c4cc(C(F)(F)F)cc(Cl)c4F)(C(F)(F)F)C3)cc2C)C1 (mixture of isomers) [Example 3.47, 4-[(5RS)-5-[3-chloro-2-fluoro-5-(trifluoromethyl)phenyl]-5-(trifluoromethyl)-4H-isoxazol-3-yl]-N-(cis-3-methoxycyclobutyl)-2-methyl-benzamide] | < 3 |  |
| Cc1cc(C2=NOC(c3cc(C(F)(F)F)cc(Cl)c3F)(C(F)(F)F)C2)sc1C(=O)NCC(=O)NCC(F)(F)F (stereo not drawn) [4.1 or 4.2] |  | clearance ([2]; beagle, in vivo): 2.36 mL/h/kg; half-life ([2]; beagle, in vivo): 44 days |
| Cc1cc(C2=NOC(c3cc(C(F)(F)F)cc(Cl)c3F)(C(F)(F)F)C2)ccc1C(=O)NN1CCNC1=O (racemic) [Example 3.25, 2-methyl-N-(2-oxoimidazolidin-1-yl)-4-[(5RS)-5-[3-chloro-2-fluoro-5-(trifluoromethyl)phenyl]-5-(trifluoromethyl)-4H-isoxazol-3-yl]benzamide] | < 3 |  |
| Cc1cc(C2=NOC(c3cc(C(F)(F)F)cc(Cl)c3F)(C(F)(F)F)C2)ccc1C(=O)NC1CS(=O)(=O)C1 (single isomer, unassigned) [Example 3.52, 4-[(5R or S)-5-[3-chloro-2-fluoro-5-(trifluoromethyl)phenyl]-5-(trifluoromethyl)-4H-isoxazol-3-yl]-N-(1,1-dioxothietan-3-yl)-2-methyl-benzamide] | < 1 |  |
| Cc1cc(C2=NOC(c3cc(C(F)(F)F)cc(Cl)c3F)(C(F)(F)F)C2)ccc1C(=O)NC1CN(S(=O)(=O)N(C)C)C1 (single isomer, unassigned) [Example 3.66, N-[1-(dimethylsulfamoyl)azetidin-3-yl]-2-methyl-4-[(5R or S)-5-[3-chloro-2-fluoro-5-(trifluoromethyl)phenyl]-5-(trifluoromethyl)-4H-isoxazol-3-yl]benzamide] | < 1 |  |
| Cc1cc(C2=NOC(c3cc(C(F)(F)F)cc(Cl)c3F)(C(F)(F)F)C2)ccc1C(=O)NCC(=O)NCC(F)(F)F (stereo not drawn) [3.1 or 3.2] | < 1 | clearance ([2]; beagle, in vivo): 2.55 mL/h/kg; half-life ([2]; beagle, in vivo): 50 days |
